Columns and labels:
human TRPV1 [1] = molecular target: T1, human TRPV1 (Homo sapiens (Human), UniProt Q8NER1); assay: Acid Activation Assay (pH 5.0, intracellular Ca2+, FLIPR); type: cell-based; details: percentage of the maximal pH 5.0-induced response remaining; recombinant HEK293 hTRPV1 cells; maximum concentration tested 37.5 μM
Summary of the method: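 HEK293 cells stably expressing recombinant hTRPV1, loaded with Calcium-4 dye 90-120 min at 25° C. Compounds added over a 12-point half-log range (top 37.5 μM), then pH 5.0 DPBS/MES challenge after 3 min; FLIPR peak fluorescence over baseline given as % of maximal pH 5.0 response.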

human TRPV1 [2] = molecular target: T1, human TRPV1; assay: Capsaicin Activation Assay (intracellular Ca2+, FLIPR); type: cell-based; details: recombinant HEK293 cells expressing hTRPV1, 50 nM capsaicin
Summary of the method: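 Stably transfected HEK293 cells expressing human TRPV1 cDNA, plated the day before in poly-D-lysine plates. Compounds serially diluted from 10 mM DMSO stocks; intracellular Ca2+ fluorescence read on FLIPR at 1 to 5 second intervals.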

T1 sequence (Q8NER1 whole entry): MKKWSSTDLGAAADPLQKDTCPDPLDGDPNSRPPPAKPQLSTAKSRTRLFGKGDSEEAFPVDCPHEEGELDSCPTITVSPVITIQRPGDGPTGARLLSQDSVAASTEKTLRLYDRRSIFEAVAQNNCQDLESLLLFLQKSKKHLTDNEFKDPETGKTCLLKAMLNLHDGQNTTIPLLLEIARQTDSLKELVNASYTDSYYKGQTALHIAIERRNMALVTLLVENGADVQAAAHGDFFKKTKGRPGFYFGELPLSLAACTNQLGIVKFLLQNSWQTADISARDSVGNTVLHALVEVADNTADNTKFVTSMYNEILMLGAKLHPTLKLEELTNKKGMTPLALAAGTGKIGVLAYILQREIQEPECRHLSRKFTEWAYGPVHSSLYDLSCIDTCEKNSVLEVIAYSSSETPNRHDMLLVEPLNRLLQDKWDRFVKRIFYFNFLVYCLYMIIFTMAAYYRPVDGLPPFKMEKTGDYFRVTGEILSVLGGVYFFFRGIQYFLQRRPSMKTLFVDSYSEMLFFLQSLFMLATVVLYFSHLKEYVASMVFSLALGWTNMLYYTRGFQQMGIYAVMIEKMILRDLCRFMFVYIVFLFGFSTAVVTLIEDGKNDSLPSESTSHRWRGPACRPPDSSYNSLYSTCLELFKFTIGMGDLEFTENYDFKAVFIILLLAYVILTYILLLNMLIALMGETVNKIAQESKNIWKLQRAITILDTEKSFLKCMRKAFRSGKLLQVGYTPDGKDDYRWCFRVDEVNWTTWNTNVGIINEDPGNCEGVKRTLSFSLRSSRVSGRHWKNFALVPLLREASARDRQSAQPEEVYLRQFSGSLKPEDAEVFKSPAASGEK

SMILES | human TRPV1 H^+ (max % remain) (human TRPV1 [1]) [%] | IC50 (human TRPV1 [2]) [µM]
CN1C(=O)CCc2ccc(NC(=O)N[C@@H]3CC4(CCC4)Oc4ccc(F)cc43)cc21 [Example 269, 1-[(4R)-6-fluoro-3,4-dihydrospiro[chromene-2,1′-cyclobutan]-4-yl]-3-(1-methyl-2-oxo-1,2,3,4-tetrahydroquinolin-7-yl)urea] | 70 | 0.54
C[C@@]1(C(F)F)C[C@@H](NC(=O)Nc2ccc3c(c2)NC(=O)CC3)c2ccccc2O1 [Example 248, 1-[(2S,4R)-2-(difluoromethyl)-2-methyl-3,4-dihydro-2H-chromen-4-yl]-3-(2-oxo-1,2,3,4-tetrahydroquinolin-7-yl)urea] | 24 | 0.16
CCC1(CC)C[C@@H](NC(=O)Nc2ccc3c(c2)N(C)C(=O)CC3)c2ccc(C(F)(F)F)cc2O1 [Example 261, 1-[(4R)-2,2-diethyl-7-(trifluoromethyl)-3,4-dihydro-2H-chromen-4-yl]-3-(1-methyl-2-oxo-1,2,3,4-tetrahydroquinolin-7-yl)urea] | 70 | 0.22
CC1(C)C[C@@H](NC(=O)Nc2ccc3c(c2)NC(=O)N(CCO)C3)c2cccc(C(F)(F)F)c2O1 [Example 307, 1-[(4R)-2,2-dimethyl-8-(trifluoromethyl)-3,4-dihydro-2H-chromen-4-yl]-3-[3-(2-hydroxyethyl)-2-oxo-1,2,3,4-tetrahydroquinazolin-7-yl]urea] | 37 | 1.3
O=C1CCc2ccc(NC(=O)N[C@@H]3CC(CF)(CF)Oc4cc(OC(F)(F)F)ccc43)cc2N1 [Example 211, 1-[(4R)-2,2-bis(fluoromethyl)-7-(trifluoromethoxy)-3,4-dihydro-2H-chromen-4-yl]-3-(2-oxo-1,2,3,4-tetrahydroquinolin-7-yl)urea] | 55 | 0.02
C[C@]1(CF)C[C@@H](NC(=O)Nc2ccc3c(c2)NC(=O)CO3)c2ccc(C(F)(F)F)cc2O1 [Example 128, 1-[(2R,4R)-2-(fluoromethyl)-2-methyl-7-(trifluoromethyl)-3,4-dihydro-2H-chromen-4-yl]-3-(3-oxo-3,4-dihydro-2H-1,4-benzoxazin-6-yl)urea] | 99 | 0.034
CCC1(CC)C[C@@H](NC(=O)Nc2ccc3c(c2)NC(=O)N(CCO)C3)c2ccc(C(F)(F)F)cc2O1 [Example 46, 1-[(4R)-2,2-diethyl-7-(trifluoromethyl)-3,4-dihydro-2H-chromen-4-yl]-3-[3-(2-hydroxyethyl)-2-oxo-1,2,3,4-tetrahydroquinazolin-7-yl]urea] | 0 | 0.367
Cn1c(=O)ccc2c(NC(=O)N[C@@H]3CCOc4cc(C(F)(F)F)ccc43)cccc21 [Example 64, 1-(1-methyl-2-oxo-1,2-dihydroquinolin-5-yl)-3-[(4R)-7-(trifluoromethyl)-3,4-dihydro-2H-chromen-4-yl]urea] | 26 | 0.014
Cn1c(=O)ccc2c(NC(=O)N[C@@H]3CCOc4ccc(F)cc43)cccc21 [Example 82, 1-[(4R)-6-fluoro-3,4-dihydro-2H-chromen-4-yl]-3-(1-methyl-2-oxo-1,2-dihydroquinolin-5-yl)urea] | 56 | 0.25
Cn1c(=O)ccc2c(NC(=O)N[C@@H]3CC(C)(C)Oc4c3ccc(F)c4Cl)cccc21 [Example 22, 1-[(4R)-8-chloro-7-fluoro-2,2-dimethyl-3,4-dihydro-2H-chromen-4-yl]-3-(1-methyl-2-oxo-1,2-dihydroquinolin-5-yl)urea] | 47 | 0.015
CCC1(CC)C[C@@H](NC(=O)Nc2ccc3c(c2)NC(=O)CC3)c2ccc(Cl)c(Cl)c2O1 [Example 226, 1-[(4R)-7,8-dichloro-2,2-diethyl-3,4-dihydro-2H-chromen-4-yl]-3-(2-oxo-1,2,3,4-tetrahydroquinolin-7-yl)urea] | 12 | 0.1
CN1Cc2ccc(NC(=O)N[C@@H]3CCOc4ccc(F)cc43)cc2NC1=O [Example 199, 1-[(4R)-6-fluoro-3,4-dihydro-2H-chromen-4-yl]-3-(3-methyl-2-oxo-1,2,3,4-tetrahydroquinazolin-7-yl)urea] | 58 | 6.7

Further lines, results first:

human TRPV1 H^+ (max % remain) (human TRPV1 [1]) [%] | IC50 (human TRPV1 [2]) [µM] | SMILES
18 | 0.83 | O=C(Nc1ccc2c(c1)NC(=O)N(CCO)C2)N[C@@H]1CC(CF)(CF)Oc2c(F)cccc21 [Example 315, 1-[(4R)-8-fluoro-2,2-bis(fluoromethyl)-3,4-dihydro-2H-chromen-4-yl]-3-[3-(2-hydroxyethyl)-2-oxo-1,2,3,4-tetrahydroquinazolin-7-yl]urea]
86 | 0.82 | CN1C(=O)CCc2ccc(NC(=O)N[C@@H]3CC(CF)(CF)Oc4c(F)cccc43)cc21 [Example 281, 1-[(4R)-8-fluoro-2,2-bis(fluoromethyl)-3,4-dihydro-2H-chromen-4-yl]-3-(1-methyl-2-oxo-1,2,3,4-tetrahydroquinolin-7-yl)urea]
61 | 0.13 | CCC1(CC)C[C@@H](NC(=O)Nc2ccc3c(c2)N(C)C(=O)CC3)c2ccccc2O1 [Example 260, 1-[(4R)-2,2-diethyl-3,4-dihydro-2H-chromen-4-yl]-3-(1-methyl-2-oxo-1,2,3,4-tetrahydroquinolin-7-yl)urea]
63 | 1.3 | CN1Cc2ccc(NC(=O)N[C@@H]3C[C@@](C)(C(F)F)Oc4ccccc43)cc2NC1=O [Example 171, 1-[(2S,4R)-2-(difluoromethyl)-2-methyl-3,4-dihydro-2H-chromen-4-yl]-3-(3-methyl-2-oxo-1,2,3,4-tetrahydroquinazolin-7-yl)urea]
30 | 0.3 | CN1C(=O)NCc2c(NC(=O)N[C@@H]3CC(CF)(CF)Oc4ccccc43)cccc21 [Example 9, 1-[(4R)-2,2-bis(fluoromethyl)-3,4-dihydro-2H-chromen-4-yl]-3-(1-methyl-2-oxo-1,2,3,4-tetrahydroquinazolin-5-yl)urea]
41 | 0.017 | CCC1(CC)C[C@@H](NC(=O)Nc2cccc3c2ccc(=O)n3C)c2ccccc2O1 [Example 67, 1-[(4R)-2,2-diethyl-3,4-dihydro-2H-chromen-4-yl]-3-(1-methyl-2-oxo-1,2-dihydroquinolin-5-yl)urea]
33 | 0.1 | CN1C(=O)NCc2c(NC(=O)N[C@@H]3CC(CF)(CF)Oc4c(Cl)cccc43)cccc21 [Example 148, 1-[(4R)-8-chloro-2,2-bis(fluoromethyl)-3,4-dihydro-2H-chromen-4-yl]-3-(1-methyl-2-oxo-1,2,3,4-tetrahydroquinazolin-5-yl)urea]
52 | 0.072 | CCC1(CC)C[C@@H](NC(=O)Nc2ccc3c(c2)NC(=O)N(C)C3)c2ccccc2O1 [Example 178, 1-[(4R)-2,2-diethyl-3,4-dihydro-2H-chromen-4-yl]-3-(3-methyl-2-oxo-1,2,3,4-tetrahydroquinazolin-7-yl)urea]
23 | 0.053 | O=C1CCc2ccc(NC(=O)N[C@@H]3CC(CF)(CF)Oc4cc(F)ccc43)cc2N1 [Example 250, 1-[(4R)-7-fluoro-2,2-bis(fluoromethyl)-3,4-dihydro-2H-chromen-4-yl]-3-(2-oxo-1,2,3,4-tetrahydroquinolin-7-yl)urea]

Source: US8969325B2, “TRPV1 antagonists” (AbbVie Inc., priority 2011, dated 2015)
